From paper PMC12396409, “Screening and hit evaluation of a microbial metabolite library against the pathogenic Plasmodium falciparum and Toxoplasma gondii parasites” (International Journal for Parasitology: Drugs and Drug …, 2025)
Read-outs that look alike come from different tables or passages of the source. Where a SMILES comes first, the peptide text is derived from it. Bridges are numbered along the chain shown (N, C = ends). [ ]: non-standard residue; d: D form. The star is where a group is joined. Ileψ(thiazoline)Cys = CC[C@H](C)[C@H](N)C1=N[C@H](C(=O)*)CS1; dOrn = NCCC[C@@H](N)C(=O)O

What was measured:
[1] = tested on: P. falciparum 3D7 parasites; assay: P. falciparum growth inhibition assay, 1-cycle (72 h treatment), SYBR DNA staining (library screen at 2 μg/mL and dose-response); format: cell-based, Plasmodium falciparum
[2] = tested on: P. falciparum 3D7 parasites; assay: P. falciparum growth inhibition assay, 2-cycle (120 h treatment), delayed-death screen and dose-response; format: cell-based, Plasmodium falciparum
[3] = tested on: T. gondii RH strain (RH-Tub-eYFP) tachyzoites; assay: microbe, parasite or virus in culture; format: cell-based, Toxoplasma gondii
[4] = Toxoplasma gondii, 72 h, library screen at 2 μg/mL, 72 h, % growth, replicate 1; read-out: Tg_72h_%Growth_Rep1
[5] = Toxoplasma gondii, 72 h, library screen at 2 μg/mL, 72 h, % growth, replicate 2; read-out: Tg_72h_%Growth_Rep2
[6] = Plasmodium falciparum, 3D7, P. falciparum, 72 h, parasite screen 2 μg/mL, % growth, replicate 1, read-out: Pf_72h_%Growth_Rep1
[7] = Plasmodium falciparum, 3D7, P. falciparum, 72 h, parasite screen 2 μg/mL, % growth, replicate 2, read-out: Pf_72h_%Growth_Rep2
[8] = Plasmodium falciparum, 3D7, P. falciparum, 120 h, parasite screen 2 μg/mL, % growth, replicate 1, read-out: Pf_120h_%Growth_Rep1
[9] = Plasmodium falciparum, 3D7, P. falciparum, 120 h, parasite screen 2 μg/mL, % growth, replicate 2, read-out: Pf_120h_%Growth_Rep2
[10] = T. gondii, 72 h, 2 μg/mL; values are growth (% of control)
[11] = library screen at 2 μg/mL, 72 h, % growth, replicate 1
[12] = library screen at 2 μg/mL, 72 h, % growth, replicate 2
[13] = library screen at 2 μg/mL, 120 h, % growth, replicate 1
[14] = library screen at 2 μg/mL, 120 h, % growth, replicate 2

## CC[C@H](C)[C@H](N)C1=N[C@H](C(=O)N[C@@H](CC(C)C)C(=O)N[C@H](CCC(=O)O)C(=O)N[C@H](C(=O)N[C@H]2CCCCNC(=O)[C@H](CC(N)=O)NC(=O)[C@@H](CC(=O)O)NC(=O)[C@H](Cc3cnc[nH]3)NC(=O)[C@@H](Cc3ccccc3)NC(=O)[C@H]([C@@H](C)CC)NC(=O)[C@@H](CCCN)NC2=O)[C@@H](C)CC)CS1 [Bacitracin A] ({Ileψ(thiazoline)Cys}-L[dE]IK[dOrn]I[dF]H[dD]N; lactam 4-C)
[1]; Plasmodium falciparum, 3D7, library screen at 2 μg/mL, 72 h, % growth, replicate 1, read-out: Pf_72h_%Growth_Rep1
  activity at 2 µg/mL: 27.2%
[1]; Plasmodium falciparum, 3D7, library screen at 2 μg/mL, 72 h, % growth, replicate 2, read-out: Pf_72h_%Growth_Rep2
  activity at 2 µg/mL: 89.3%
[2]; Plasmodium falciparum, 3D7, library screen at 2 μg/mL, 120 h, % growth, replicate 1, read-out: Pf_120h_%Growth_Rep1
  activity at 2 µg/mL: 59.9%
[2]; Plasmodium falciparum, 3D7, library screen at 2 μg/mL, 120 h, % growth, replicate 2, read-out: Pf_120h_%Growth_Rep2
  activity at 2 µg/mL: 94.6%
[3]; [4]
  percent parasite growth at 2 µg/mL: 81.4%
[3]; [5]
  percent parasite growth at 2 µg/mL: 89.8%

## COc1cccc2c1C(=O)c1c(O)c3c(c(O)c1C2=O)C[C@@](O)(C(=O)CO)C[C@@H]3O[C@H]1C[C@H](N)[C@H](O)[C@H](C)O1 [Doxorubicin]
[1]; Plasmodium falciparum, 3D7, 72 h, library screen at 2 μg/mL, 72 h, % growth, replicate 1, read-out: Pf_72h_%Growth_Rep1
  activity at 2 µg/mL: 51.3%
[1]; Plasmodium falciparum, 3D7, 72 h, library screen at 2 μg/mL, 72 h, % growth, replicate 2, read-out: Pf_72h_%Growth_Rep2
  activity at 2 µg/mL: 57.9%
[2]; Plasmodium falciparum, 3D7, 120 h, library screen at 2 μg/mL, 120 h, % growth, replicate 1, read-out: Pf_120h_%Growth_Rep1
  activity at 2 µg/mL: 15.8%
[2]; Plasmodium falciparum, 3D7, 120 h, library screen at 2 μg/mL, 120 h, % growth, replicate 2, read-out: Pf_120h_%Growth_Rep2
  activity at 2 µg/mL: 35.7%
[3]; [4]
  percent parasite growth at 2 µg/mL: 214%
[3]; [5]
  percent parasite growth at 2 µg/mL: 123%

## CCCCCC1=C/C(=C/c2[nH]c(-c3ccc[nH]3)cc2OC)N=C1C [Prodigiosin]
[1]; [6]
  activity at 2 µg/mL: 5.96%
[1]; [7]
  activity at 2 µg/mL: 4.13%
[2]; [8]
  activity at 2 µg/mL: -0.86%
[2]; [9]
  activity at 2 µg/mL: 19.4%
[3]; T. gondii, 72 h, 2 μg/mL; mean of both replicates, growth (% of control)
  Mean: 25.60
[3]; [10]
  Replicate 1: 39.74
  Replicate 2: 11.46
[3]; Toxoplasma gondii; T. gondii, 72 h, parasite screen 2 μg/mL, % growth, replicate 1; read-out: Tg_72h_%Growth_Rep1
  percent parasite growth at 2 µg/mL: 39.7%
[3]; Toxoplasma gondii; T. gondii, 72 h, parasite screen 2 μg/mL, % growth, replicate 2; read-out: Tg_72h_%Growth_Rep2
  percent parasite growth at 2 µg/mL: 11.5%

## CCC/C=C/C=C/C1C[C@@H](O)[C@@H](O)C(=O)[C@H]1C=O (stereo partly drawn) [Frequentin]
[1]; [11]
  Pf_72h_%Growth_Rep1: 84.65%
[1]; [12]
  Pf_72h_%Growth_Rep2: 84.20%
[2]; [13]
  Pf_120h_%Growth_Rep1: 99.31%
[2]; [14]
  Pf_120h_%Growth_Rep2: 94.53%
[3]; [11]
  Tg_72h_%Growth_Rep1: 198.87%
[3]; [12]
  Tg_72h_%Growth_Rep2: 96.89%

## CO[C@H]1[C@H](O)[C@@H](O)[C@H](n2c3c(Cl)cccc3c3c4c(c5c6cccc(Cl)c6[nH]c5c32)C(=O)NC4=O)O[C@@H]1CO [Rebeccamycin]
[1]; Plasmodium falciparum, 3D7; P. falciparum, 2 μg/mL, 72 h; read-out: 1) Growth (%) at 72 h
  activity at 2 µg/mL: 21.6%
[1]; [6]
  activity at 2 µg/mL: 22.6%
[1]; [7]
  activity at 2 µg/mL: 20.5%
[2]; P. falciparum, growth at 72 h / growth at 120 h, 2 μg/mL
  3) Fold change (72 h/120 h): 1.2
[2]; Plasmodium falciparum, 3D7; P. falciparum, 2 μg/mL, 120 h; read-out: 2) Growth (%) at 120 h
  activity at 2 µg/mL: 18.4%
[2]; [8]
  activity at 2 µg/mL: 22.3%
[2]; [9]
  activity at 2 µg/mL: 14.5%
[3]; Toxoplasma gondii, 72 h, T. gondii, 72 h, parasite screen 2 μg/mL, % growth, replicate 1; read-out: Tg_72h_%Growth_Rep1
  percent parasite growth at 2 µg/mL: 35.4%
[3]; Toxoplasma gondii, 72 h, T. gondii, 72 h, parasite screen 2 μg/mL, % growth, replicate 2; read-out: Tg_72h_%Growth_Rep2
  percent parasite growth at 2 µg/mL: 70.9%

## CS(=O)(=O)c1ccc([C@@H](O)[C@H](N)CF)cc1 [Florfenicol amine]
[1]; [11]
  Pf_72h_%Growth_Rep1: 83.39%
[1]; [12]
  Pf_72h_%Growth_Rep2: 89.53%
[2]; [13]
  Pf_120h_%Growth_Rep1: 94.89%
[2]; [14]
  Pf_120h_%Growth_Rep2: 93.06%
[3]; [11]
  Tg_72h_%Growth_Rep1: 102.85%
[3]; [12]
  Tg_72h_%Growth_Rep2: 100.85%

## CC(=O)OCc1c(O)c2c(c3c1OC(=O)c1c(C)cc(O)c(C=O)c1O3)C(O)OC2=O (stereo not drawn) [Galbinic acid]
[1]; [11]
  Pf_72h_%Growth_Rep1: 88.09%
[1]; [12]
  Pf_72h_%Growth_Rep2: 110.75%
[2]; [13]
  Pf_120h_%Growth_Rep1: 99.54%
[2]; [14]
  Pf_120h_%Growth_Rep2: 110.27%
[3]; [11]
  Tg_72h_%Growth_Rep1: 125.30%
[3]; [12]
  Tg_72h_%Growth_Rep2: 103.13%
